Values joined by “and” are separate entries in the source; they are usually repeats but may differ in a detail not shown here. Identical values can stand only once. Like-named read-outs stand apart in the source and are kept apart here.
How the values were obtained:
Human HDAC8 = molecular target: T1, Human HDAC8 (Homo sapiens, UniProt Q9BY41); test: Biochemical HDAC assay, HDAC8; details: incubation time 10 min
T1 construct: full-length with a C-terminal His tag; His tag (C); made in house
T1 sequence (Q9BY41 1-377): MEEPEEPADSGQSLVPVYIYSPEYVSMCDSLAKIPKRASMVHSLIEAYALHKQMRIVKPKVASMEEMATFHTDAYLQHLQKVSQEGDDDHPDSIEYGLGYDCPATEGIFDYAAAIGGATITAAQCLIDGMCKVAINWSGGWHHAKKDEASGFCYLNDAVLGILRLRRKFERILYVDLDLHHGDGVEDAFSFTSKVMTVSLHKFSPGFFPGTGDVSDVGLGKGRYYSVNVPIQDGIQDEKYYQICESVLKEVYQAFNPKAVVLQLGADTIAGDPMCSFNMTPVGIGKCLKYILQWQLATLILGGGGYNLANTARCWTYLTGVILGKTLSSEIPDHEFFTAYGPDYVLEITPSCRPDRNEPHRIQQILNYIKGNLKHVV
Description: Human HDAC8 (GenBank Accession No. NM_018486), full-length with a C-terminal His tag, MW=46.4 kDa, was expressed in a baculovirus expression system.
• I. Compound handling: Testing compounds were dissolved in 100% DMSO to a specific concentration. The serial dilution was conducted by epMotion 5070 in DMSO. • II. HDAC reaction buffer: 50 mM Tris-HCl, pH8.0, 137 mM NaCl, 2.7 mM KCl, and 1 mM MgCl2, Added fresh: 1 mg/ml BSA, 1% DMSO. • III. Substrate: Fluorogenic HDAC General Substrate for HDAC1, 2, 3, 6, 10, 11 ans Sirt1, 2 and 3: Arg-His-Lys-Lys(Ac); HDAC8 only substrate: Arg-His-Lys(Ac)-Lys(Ac); Class2A Substrate (HDAC4, 5, 7 and 9): Acetyl-Lys(trifluoroacetyl)-AMC; Sirt5 substrate: Ac-Lys(succinyl)-AMC. • IV. General Reaction Procedure: (Standard IC50 determination) • a. Delivered 2× enzyme in wells of reaction plate except No Enzyme (No En) control wells. Add buffer in No En wells. • b. Delivered compounds in 100% DMSO into the enzyme mixture by Acoustic technology (Echo550; nanoliter range). Spin down and pre-incubation. • c. Delivered 2× Substrate Mixture (Fluorogenic HDAC Substrate and co-factor (500 μM of Nicotinamide adenine dinucleotide (NAD^+) in all Sirt assay) in all reaction wells to initiate the reaction. Spin and shake. • d. Incubated for 1-2 hr. at 30° C. with seal. • e. Added Developer with Trichostatin A (or TMP269 or NAD^+) to stop the reaction and to generate fluorescent color. • f. Fluorescence was read (excitatory, 360; emission, 460) using the EnVision Multilabel Plate Reader (Perkin Elmer) • g. Endpoint reading was taken for analysis after the development reaches plateau. • V. Data Analysis: The percentages of enzyme activity (relative to DMSO controls) and IC50 values were calculated using the GraphPad Prism 4 program based on a sigmoidal dose-response equation.
Compounds with indicated doses was tested in the biochemical assays of HDAC1, HDAC2, HDAC3, HDAC4, HDAC5, HDAC6, HDAC7, HDAC8, HDAC9, HDAC10, or HDAC11 enzyme. The incubation time in HDAC1/2 assays are 120 min, and that for other HDACs are 10 min. The curve fit and IC50 values were calculated using the GraphPad Prism 4 program based on a sigmoidal dose-response equation.

[1] = Mouse plasma PK (IV and PO dosing); assay type: in vivo, Male C57 Bl/6J mice; details: for AUC(0-inf): read-out: AUCINF—obs (converted); for MRT inf: read-out: MRTINF—obs
Description: In vivo PK (pharmacokinetics) studies were run at Scripps Florida DMPK Core facility. Mouse plasma PK data was obtained using the compound of Example 5 (N-(2-amino-5-(thiophen-2-yl)phenyl)-2-oxo-1,2,3,4-tetrahydroquinoline-6-carboxamide)
Dose: 1 mg/kg intravenous (IV), 7 mg/kg oral dosing (PO)
Formulation: 0.1 mg/mL (IV) and 1 mg/mL (PO) solution in 10/10/80 DMSO/Tween80/Water
Mice Info: Male C57 Bl/6J
Plasma PK were evaluated in mice after administration of compound Example 5. […] (Tmax), maximal concentration (Cmax), observed clearance (Cl_obs), mean residential time (MRT), and observed volume distribution (Vss_obs) were also quantified (Tables 2 and 3).

[2] = Brain exposure experiment in mice; assay type: in vivo; details: 1 hour after exposure
Description: Brain exposure experiments were performed wherein mice were exposed to compound Example 5 at an IV dosage of 1 mg/kg (Table 4).

[3] = IV 1 mg/kg, mouse plasma, average
[4] = IV 1 mg/kg, mouse plasma, individual mice, 1 mg/kg
[5] = IV administration, mouse plasma
[6] = PO 7 mg/kg, mouse plasma, average
[7] = PO 7 mg/kg, mouse plasma, individual mice, 7 mg/kg
[8] = male, C57 Bl/6J, mouse, plasma, iv, 1 mg/kg, IV 1 mg/kg, mouse plasma, average
[9] = male, C57 Bl/6J, mouse, plasma, iv, 1 mg/kg, IV 1 mg/kg, mouse plasma, individual mice
[10] = male, C57 Bl/6J, mouse, plasma, po, 7 mg/kg, PO 7 mg/kg, mouse plasma, average
[11] = male, C57 Bl/6J, mouse, plasma, po, 7 mg/kg, PO 7 mg/kg, mouse plasma, individual mice
[12] = IV 1 mg/kg, individual mice, 1 mg/kg

IC50 (Human HDAC8): > 10 µM | AUC (% Extrap) [1, 3]: 1.42% | Cl_obs [1, 3]: 5.33 mL/min/kg | Vss_obs [1, 3]: 0.40 L/kg | AUC (% Extrap) [1, 4]: 1.31% and 1.23% and 1.71% | Cmax [1, 4]: 2480 ng/mL and 4540 ng/mL and 5820 ng/mL | MRTINF—obs [1, 4]: 1.19 h and 1.14 h | T1/2 [1, 4]: 1.52 h and 1.59 h | Tmax [1, 4]: 0.08 hr (2×) and 0.25 hr | Vss_obs [1, 4]: 0.48 L/kg and 0.39 L/kg and 0.33 L/kg | Cmax ([1]; IV 1 mg/kg, mouse plasma, individual mice, 1 mg/kg, read-out: Cmax): 6.83 µM and 12.5 µM and 16 µM | clearance (in words) [1, 5]: low clearance | volume (in words) [1, 5]: low volume | AUC (% Extrap) [1, 6]: 9.95% | Cl_obs [1, 6]: 25.89 mL/min/kg | AUC (% Extrap) [1, 7]: 6.21% and 14.68% and 8.96% | Cmax [1, 7]: 1590 ng/mL and 1620 ng/mL | T1/2 [1, 7]: 3.30 h and 2.62 h | Tmax [1, 7]: 1.00 hr and 0.25 hr (2×) | Cmax ([1]; PO 7 mg/kg, mouse plasma, individual mice, 7 mg/kg, read-out: Cmax): 4.38 µM and 4.46 µM | AUC ([1]; male, C57 Bl/6J, 1 mg/kg, IV administration, mouse plasma, read-out: AUC): 8.5 µM·h | AUC ([1]; male, C57 Bl/6J, 7 mg/kg, PO dosing, mouse plasma, read-out: AUC (area under the curve)): 11 to 12 µM·h | AUC(0-t) [1, 8]: 8.53 µM·h and 3100 ng·h/mL | AUC(0-inf) [1, 8]: 3140 ng·h/mL | Cmax ([1]; male, C57 Bl/6J, mouse, plasma, iv, 1 mg/kg, IV 1 mg/kg, mouse plasma, average, read-out: Cmax): 4280 ng/mL and 11.8 µM | MRT inf [1, 8]: 1.24 h | half-life ([1]; male, C57 Bl/6J, mouse, plasma, iv, 1 mg/kg, IV 1 mg/kg, mouse plasma, average, read-out: T1/2 (converted)): 1.48 h | Tmax ([1]; male, C57 Bl/6J, mouse, plasma, iv, 1 mg/kg, IV 1 mg/kg, mouse plasma, average, read-out: Tmax): 0.14 h | AUC(0-t) [1, 9]: 7.88 µM·h and 2860 ng·h/mL | AUC(0-inf) [1, 9]: 2900 ng·h/mL | MRT inf [1, 9]: 1.39 h | half-life ([1]; male, C57 Bl/6J, mouse, plasma, iv, 1 mg/kg, IV 1 mg/kg, mouse plasma, individual mice, read-out: T1/2 (converted)): 1.34 h | half-life ([1]; male, C57 Bl/6J, mouse, plasma, iv, 1 mg/kg, IV administration, mouse plasma, read-out: half-life (T1/2) (converted)): 1.5 h | AUC(0-t) [1, 10]: 11.8 µM·h and 4270 ng·h/mL | AUC(0-inf) [1, 10]: 4710 ng·h/mL | Cmax ([1]; male, C57 Bl/6J, mouse, plasma, po, 7 mg/kg, PO 7 mg/kg, mouse plasma, average, read-out: Cmax): 1960 ng/mL and 5.4 µM | half-life ([1]; male, C57 Bl/6J, mouse, plasma, po, 7 mg/kg, PO 7 mg/kg, mouse plasma, average, read-out: T1/2 (converted)): 2.66 h | Tmax ([1]; male, C57 Bl/6J, mouse, plasma, po, 7 mg/kg, PO 7 mg/kg, mouse plasma, average, read-out: Tmax): 0.5 h | AUC(0-t) [1, 11]: 15.9 µM·h and 5760 ng·h/mL | AUC(0-inf) [1, 11]: 6140 ng·h/mL | Cmax ([1]; male, C57 Bl/6J, mouse, plasma, po, 7 mg/kg, PO 7 mg/kg, mouse plasma, individual mice, read-out: Cmax): 2670 ng/mL and 7.36 µM | half-life ([1]; male, C57 Bl/6J, mouse, plasma, po, 7 mg/kg, PO 7 mg/kg, mouse plasma, individual mice, read-out: T1/2 (converted)): 2.05 h | half-life ([1]; male, C57 Bl/6J, mouse, plasma, po, 7 mg/kg, PO dosing, mouse plasma, read-out: half-life (converted)): 2.7 h | bioavailability ([1]; male, C57 Bl/6J, plasma, PO 7 mg/kg vs IV 1 mg/kg, mouse, read-out: % F (bioavailability)): 20% | brain penetration (in words) ([2]; IV 1 mg/kg): no brain penetration | Brain concentration [2, 12]: 0 ng/mL | concentration at 1 h ([2]; IV 1 mg/kg, individual mice, 1 mg/kg, read-out: Brain concentration): 0.00 µM | concentration at 1 h ([2]; mouse, brain, iv, 1 mg/kg, average, read-out: Brain concentration): 0 ng/mL and 0 nM | concentration at 1 h ([2]; mouse, brain, iv, 1 mg/kg, individual mice, read-out: Brain concentration): 0 ng/mL and 0 nM | concentration at 1 h ([2]; mouse, plasma, iv, 1 mg/kg, average, read-out: Plasma concentration): 267 ng/mL and 730 nM | concentration at 1 h ([2]; mouse, plasma, iv, 1 mg/kg, individual mice, read-out: Plasma concentration): 324 ng/mL and 890 nM
SMILES: Nc1ccc(-c2cccs2)cc1NC(=O)c1ccc2c(c1)CCC(=O)N2 [Example 5, N-(2-amino-5-(thiophen-2-yl)phenyl)-2-oxo-1,2,3,4-tetrahydroquinoline-6-carboxamide]
AUCINF—obs [1, 4]: 184402 ng·min/mL and 207009 ng·min/mL | AUClast [1, 4]: 8.36 μM · hr and 9.34 μM · hr and 182140 min * ng/mL and 203467 min * ng/mL | Cl_obs [1, 4]: 5.75 mL/min/kg and 5.42 mL/min/kg and 4.83 mL/min/kg | AUCINF—obs [1, 7]: 227793 ng·min/mL and 250553 ng·min/mL | AUClast [1, 7]: 8.92 μM · hr and 10.47 μM · hr and 194363 min * ng/mL and 228113 min * ng/mL | Cl_obs [1, 7]: 18.99 mL/min/kg and 30.73 mL/min/kg and 27.94 mL/min/kg | Plasma concentration [2, 12]: 206 ng/mL and 0.57 μM and 270 ng/mL and 0.74 μM

From patent US20190270733A1, “Quinoline and Isoquinoline Based HDAC Inhibitors and Methods of Use Thereof” (Reaction Biology Corp., priority 2018, published 2019)
